The assay deals with T1, ADAR1 (Homo sapiens, UniProt P55265).
T1 construct: endogenous in cells; host or cells: p110 KO A549 dual cells
T1 sequence (P55265 1-1226): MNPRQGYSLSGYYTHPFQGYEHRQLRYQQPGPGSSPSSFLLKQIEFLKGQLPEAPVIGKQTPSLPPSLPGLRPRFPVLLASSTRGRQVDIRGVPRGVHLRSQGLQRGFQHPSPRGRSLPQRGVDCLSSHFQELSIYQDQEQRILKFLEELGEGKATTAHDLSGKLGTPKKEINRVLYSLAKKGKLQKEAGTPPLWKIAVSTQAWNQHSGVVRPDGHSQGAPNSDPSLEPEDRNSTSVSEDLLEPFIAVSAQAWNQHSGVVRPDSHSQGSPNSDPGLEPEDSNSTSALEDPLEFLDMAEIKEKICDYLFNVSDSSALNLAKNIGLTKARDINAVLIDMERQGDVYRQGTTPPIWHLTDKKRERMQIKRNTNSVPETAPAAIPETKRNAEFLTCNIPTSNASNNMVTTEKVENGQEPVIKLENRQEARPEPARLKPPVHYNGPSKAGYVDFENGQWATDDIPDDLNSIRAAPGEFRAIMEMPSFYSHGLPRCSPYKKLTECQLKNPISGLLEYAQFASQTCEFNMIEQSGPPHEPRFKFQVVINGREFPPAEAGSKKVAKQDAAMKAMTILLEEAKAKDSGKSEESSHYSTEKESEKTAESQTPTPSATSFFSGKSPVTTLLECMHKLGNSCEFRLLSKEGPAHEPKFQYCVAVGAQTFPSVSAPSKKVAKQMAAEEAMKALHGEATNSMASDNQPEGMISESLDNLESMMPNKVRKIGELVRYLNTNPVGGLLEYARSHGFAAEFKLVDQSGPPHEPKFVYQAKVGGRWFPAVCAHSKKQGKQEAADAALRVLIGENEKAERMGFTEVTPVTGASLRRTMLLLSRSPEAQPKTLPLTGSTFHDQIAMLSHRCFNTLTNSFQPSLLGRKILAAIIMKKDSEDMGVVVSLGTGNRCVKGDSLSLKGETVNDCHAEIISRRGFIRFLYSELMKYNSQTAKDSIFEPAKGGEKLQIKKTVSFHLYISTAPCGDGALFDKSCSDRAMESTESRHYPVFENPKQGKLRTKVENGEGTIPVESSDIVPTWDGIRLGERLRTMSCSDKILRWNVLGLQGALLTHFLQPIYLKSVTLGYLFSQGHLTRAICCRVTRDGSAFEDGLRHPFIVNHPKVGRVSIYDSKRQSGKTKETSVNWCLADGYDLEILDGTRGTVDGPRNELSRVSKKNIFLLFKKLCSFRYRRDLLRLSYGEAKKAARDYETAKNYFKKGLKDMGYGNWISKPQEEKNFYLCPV
Description: ADAR1 Inhibition Assay (IFN fold-induction, Quanti-Luc luminescence, p110 KO A549 dual cells). Conditions: IFN fold-induction vs DMSO, 24 and 48 h. It counts as cell-based. How it is done:
An ADAR1 Inhibition Assay was used to determine the biological activity (EC50) of compounds disclosed herein. 100 μL of p110 KO A549 dual cell suspension in supplemented DMEM (20,000 cells per well) was added into a flat bottom 96 well plate. Next day, post media change, 180 μL of supplemented DMEM was added. 20 μL of test compound or positive control was added to the respective wells (Final concentration of DMSO is 1%). The plate was incubated for 24 and 48 hours at 37° C. in a 5% CO2 incubator. After 24 and 48 h, 20 μL of cell suspension was taken in black well plates and 50 μL of Quanti-Luc was added to each well and luminescence was measured using a microplate reader (Spectra Max). IFN fold-induction was plotted considering DMSO as control using the relative luminescence unit (RLU) values. (Fold induction: Sample RLU/Average DMSO RLU).
In turn, `CCOC(=O)c1c(-c2ccccc2)csc1NC(=O)COC(=O)c1cccc(S(N)(=O)=O)c1` [Compound 3] yielded a concentration giving a half-maximal response (EC50) of over 100 µM.

In the case of `CCOC(=O)c1cc(-c2ccccc2)sc1NC(=O)COC(=O)c1ccc(NS(C)(=O)=O)cc1` [Compound 101], the EC50 is over 100 µM. Regarding `CCOC(=O)c1cc(-c2ccc(P(=O)(OCC)OCC)cc2)sc1NC(=O)COC(=O)c1cccc(S(N)(=O)=O)c1` [Compound 429], the EC50 is over 100 µM. With `CCOC(=O)c1cc(-c2ccccc2)sc1NC(=O)[C@H](CC)OC(=O)c1cccc(S(N)(=O)=O)c1` [Compound 79] the figure was over 100 µM; with `CCOC(=O)c1ccc(-c2ccccc2)cc1NC(=O)COC(=O)c1cccc(NS(C)(=O)=O)c1` [Compound 120], over 100 µM.

In turn, `CCOC(=O)c1ccncc1NC(=O)COC(=O)c1cccc(NS(C)(=O)=O)c1` [Compound 277] came in with a concentration giving a half-maximal response (EC50) of over 100 µM. The molecule `CCOC(=O)c1cc(-c2ccc(OC(F)(F)F)cc2)sc1NC(=O)COC(=O)c1cccc(S(N)(=O)=O)c1` [Compound 73] returned an EC50 of over 100 µM. The same measure for `CCOC(=O)c1cc(-c2ccccc2)sc1NC(=O)COC(=O)c1cccc(S(C)(=N)=O)c1` (stereo not shown) [Compound 174]: over 100 µM; for `CCOC(=O)c1cc(C2CCNCC2)sc1NC(=O)COC(=O)c1cccc(NS(C)(=O)=O)c1` [Compound 295]: over 100 µM. The same measure for `CCOC(=O)c1cc(-c2ccccc2)sc1NC(=O)COC(=O)c1ccc(F)c(S(N)(=O)=O)c1` [Compound 69]: over 100 µM; for `CCOC(=O)c1cc(-c2ccccc2)sc1NC(=O)COC(=O)c1cccc(O)c1` [Compound 60]: over 100 µM.

The molecule `CCOC(=O)c1cc(-c2ccccc2)sc1N1CCN(C(=O)c2cccc(NS(C)(=O)=O)c2)CC1` [Compound 279] displayed a concentration giving a half-maximal response (EC50) of over 100 µM. Molecule `CCOC(=O)c1cc(NC(=O)COC(=O)c2cccc(NS(C)(=O)=O)c2)ncc1-c1ccccc1` [Compound 249] gave a 50% effective concentration (EC50) of over 100 µM.

In turn, `CCOC(=O)c1cc(-c2ccccc2)sc1NC(=O)CN1CCN(C(=O)Cc2cccc(NS(C)(=O)=O)c2)CC1` [Compound 334] returned an EC50 of over 100 µM. Turning to `CCOC(=O)c1cc(-c2ccccc2)sc1NC(=O)CNC(=O)c1cccc(S(=O)(=O)NC(C)C)c1` [Compound 41], the half-maximal effective concentration (EC50) is over 100 µM. The molecule `CCOC(=O)c1cc(-c2ccccc2)sc1NC(=O)CN1C(=O)COc2ccc(NS(C)(=O)=O)cc21` [Compound 291] showed an EC50 of over 100 µM. In the case of `CCOC(=O)c1cc(-c2ccccc2OC(F)(F)F)sc1NC(=O)COC(=O)c1cccc(NS(C)(=O)=O)c1` [Compound 201], the EC50 was over 100 µM. The same measure for `CCOC(=O)c1cc(-c2cncnc2)sc1NC(=O)COC(=O)c1cccc(NS(N)(=O)=O)c1` [Compound 115]: over 100 µM. `CCOC(=O)c1cc(-c2ccccc2)sc1NC(=O)CNC(=O)c1cccc(S(=O)(=O)N(C)C)c1` [Compound 4] yielded an EC50 of over 100 µM.

Turning to `CCOC(=O)c1cc(Sc2ccccc2)sc1NC(=O)COC(=O)c1cccc(NS(C)(=O)=O)c1` [Compound 315], the EC50 is over 100 µM. With `COC(=O)c1sc(-c2ccccc2)cc1NC(=O)COC(=O)c1cccc(S(N)(=O)=O)c1` [Compound 318] the figure was 50 to 100 µM; with `CCOC(=O)c1cc(-c2ccccc2)oc1NC(=O)COC(=O)c1cccc(NS(C)(=O)=O)c1` [Compound 301], 50 to 100 µM; with `CCOC(=O)c1cc(-c2ccccc2)sc1NC(=O)COC(=O)c1cccc(NS(=O)(=O)CC)c1` [Compound 134], over 100 µM.

With `CCOC(=O)c1cc(-c2ccccc2)sc1NC(=O)CN` [Compound 12], the EC50 was over 100 µM.

`CCOC(=O)c1cc(-c2ccccc2)sc1NC(=O)C1CCCN1C(=O)c1cccc(NS(C)(=O)=O)c1` (stereo not shown) [Compound 109] registered a concentration for a half-maximal effect (EC50) of over 100 µM.

`CCOC(=O)c1cc(-c2ccccc2)sc1NC(=O)COC(=O)c1cccc(NS(=O)(=O)c2ccccc2)c1` [Compound 124] displayed a concentration for a half-maximal effect (EC50) of over 100 µM. Molecule `NS(=O)(=O)c1cccc(NC(=O)CNC(=O)c2ccc(-c3cccnc3)s2)c1` [Compound 19] returned an EC50 of over 100 µM. In the case of `CCOC(=O)c1cc(-c2ccccc2)[nH]c1NC(=O)CNC(=O)c1cccc(P(=O)(OCC)OCC)c1` [Compound 408], the EC50 lay within 50 to 100 µM.

`CCOC(=O)c1cc(-c2ccc3c(cnn3C)c2)sc1NC(=O)COC(=O)c1cccc(NS(C)(=O)=O)c1` [Compound 305] gave a 50% effective concentration (EC50) of 50 to 100 µM. In turn, `NS(=O)(=O)c1cccc(NC(=O)c2csc(-c3ccccc3)c2)c1` [Compound 25] registered an EC50 of over 100 µM. With `COC(=O)c1nc(-c2ccccc2)cnc1NC(=O)COC(=O)c1cccc(NS(C)(=O)=O)c1` [Compound 258] the figure was over 100 µM.

`CCOC(=O)c1cc(-c2ccccc2)sc1NC(=O)CNC(=O)c1cccc(S(=O)(=O)N2CCOCC2)c1` [Compound 28] registered an EC50 of over 100 µM. Regarding `CS(=O)(=O)Nc1cccc(C(=O)N2CCC(C(=O)Nc3nnc(-c4ccccc4)s3)C2)c1` (stereo not shown) [Compound 173], the EC50 was over 100 µM. Molecule `CCOC(=O)c1cc(-c2ccccc2)sc1NC(=O)c1cccc(NC(=O)c2cccc(NS(C)(=O)=O)c2)c1` [Compound 323] returned an EC50 of over 100 µM. For the molecule `CCOC(=O)c1cc(-c2cc[nH]n2)sc1NC(=O)COC(=O)c1cccc(NS(C)(=O)=O)c1` [Compound 159], the concentration giving a half-maximal response (EC50) was over 100 µM.

Molecule `CCOC(=O)c1cc(-c2ccccc2)sc1NC(=O)COC(=O)c1cccc(NS(N)(=O)=O)c1` [Compound 112] returned a concentration for a half-maximal effect (EC50) of over 100 µM. For the molecule `CN(C)C(=O)c1cc(-c2ccccc2)sc1NC(=O)COC(=O)c1cccc(NS(C)(=O)=O)c1` [Compound 186], the EC50 was over 100 µM.

Consider `CCOC(=O)c1cc(-c2ccccc2)sc1NC(=O)COC(=O)c1cccc(NS(=O)(=O)c2c(C)noc2C)c1` [Compound 322], for which the EC50 was over 100 µM. For the molecule `CS(=O)(=O)Nc1cccc(C(=O)OCC(=O)Nc2sccc2C#N)c1` [Compound 90], the 50% effective concentration (EC50) was over 100 µM. The same measure for `CCOC(=O)c1cc(-c2ccccc2)sc1NC(=O)Cn1cc(CNC(=O)c2cccc(P(=O)(OCC)OCC)c2)nn1` [Compound 401]: over 100 µM. Molecule `CCOC(=O)c1cc(-c2ccccc2)sc1NC(=O)COC(=O)c1cccc(CNS(C)(=O)=O)c1` [Compound 177] displayed a concentration giving a half-maximal response (EC50) of over 100 µM. For `CCOC(=O)c1cc(-c2ccccc2)sc1NC(=O)CNS(=O)(=O)c1cccc(NS(C)(=O)=O)c1` [Compound 232], the EC50 was over 100 µM. With `CCOC(=O)c1cc(-c2ccccc2)sc1NC(=O)[C@H](CC)OC(=O)c1cccc(NS(C)(=O)=O)c1` [Compound 80] the figure was over 100 µM; with `CCOC(=O)c1nc(-c2ccccc2)oc1NC(=O)COC(=O)c1cccc(P(=O)(OCC)OCC)c1` [Compound 407], 50 to 100 µM; with `CCOC(=O)c1cc(-c2ccccc2)sc1NC(=O)CN(C(=O)c1cccc(NS(C)(=O)=O)c1)C1CC1` [Compound 155], over 100 µM. On to `NS(=O)(=O)c1cccc(NC(=O)CNC(=O)c2csc(-c3cccnc3)n2)c1` [Compound 20], for which the EC50 is over 100 µM. As to `C=CC(=O)Nc1cccc(C(=O)OCC(=O)Nc2sc(-c3ccccc3)cc2C(=O)OCC)c1` [Compound 284], the EC50 is over 100 µM.

`CCOC(=O)c1cnc(NC(=O)COC(=O)c2cccc(NS(C)(=O)=O)c2)c(-c2ccccc2)c1` [Compound 254] displayed a concentration for a half-maximal effect (EC50) of over 100 µM. In the case of `CCOC(=O)c1cc(-c2ccccc2)sc1NC(=O)COC(=O)c1cccc(N)c1` [Compound 187], the EC50 is over 100 µM.

The term EC50 denotes the midpoint of the concentration-response curve. A lower EC50 goes with an effect from little substance.
